SMILES strings stand for the structures.

In this assay the target is T1, purified STEP46 enzyme (Homo sapiens, UniProt P54829).
T1 sequence (P54829 1-565): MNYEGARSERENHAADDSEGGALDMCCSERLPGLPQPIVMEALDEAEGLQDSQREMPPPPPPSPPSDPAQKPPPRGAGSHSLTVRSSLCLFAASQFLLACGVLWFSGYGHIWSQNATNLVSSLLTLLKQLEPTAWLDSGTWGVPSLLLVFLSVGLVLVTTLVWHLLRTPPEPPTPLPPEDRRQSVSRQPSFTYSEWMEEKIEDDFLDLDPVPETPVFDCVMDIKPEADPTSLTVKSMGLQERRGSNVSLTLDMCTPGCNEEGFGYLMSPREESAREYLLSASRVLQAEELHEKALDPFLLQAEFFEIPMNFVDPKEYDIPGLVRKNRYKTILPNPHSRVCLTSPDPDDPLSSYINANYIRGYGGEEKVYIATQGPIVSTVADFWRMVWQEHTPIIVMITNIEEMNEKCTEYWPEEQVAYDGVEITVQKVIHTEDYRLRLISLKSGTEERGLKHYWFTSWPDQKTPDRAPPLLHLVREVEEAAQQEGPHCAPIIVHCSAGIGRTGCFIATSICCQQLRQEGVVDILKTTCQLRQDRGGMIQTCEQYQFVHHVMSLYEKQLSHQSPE
Put plainly: STEP46 biochemical assay (DiFMUP fluorescence phosphatase assay). The conditions noted are these: DiFMUP 10 μM, read-out: STEP IC50. As for the experimental part:
STEP46 Biochemical Assays
Serial dilutions of compounds were performed in 100% DMSO and 1 uL of compounds were dispensed into 384-well black polystyrene plates (Corning, NY). Compounds were incubated with 24 uL of buffer containing 50 mM Hepes, 1 mM DTT, 0.02% Brij35, 1 ng/well purified STEP46 enzyme for 30 min at room temperature. The reaction was initiated by addition of 25 uL of DiFMUP (6, 8-difluoro-4-methylumbelliferyl phosphate) (InVitrogen, CA) with a final concentration of 10 μM and incubated at 27° C. for 90 min. Final DMSO concentration is 2%. Plates were read with florescence intensity at excitation/emission of 360/460 nm using a PheraStar plate reader (BMG Labtech, NC).
Data were expressed as percentage (%) inhibition of enzyme activity. 0% inhibition is defined as the RFUs (relative fluorescence units) in the absence of compounds and 100% inhibition is defined as RFUs in the absence of STEP46 enzyme. IC50 values of compounds with inhibitory activity against STEP46 were determined by GraphPad Prism (version 4.03) using four parameter logistic equation. Some compounds act as activators. For compounds showing STEP46 enzymatic activation, data are represented as percentage of inhibition but with negative values at three representative concentrations (25, 50 and 100 uM).
One may read the IC50 as the concentration needed to halve the response being measured. With `COc1ccc2nc(-c3cccnc3)nc(Nc3nc(CC(C)C)cs3)c2c1` [Compound 460], the IC50 fell in the range of 1000 to 10000 nM.

Consider `COc1ccc2nc(-c3cccnc3)nc(Nc3nc(-c4ccccc4)c(C)s3)c2c1` [Compound 456], for which the IC50 was below 1000 nM.

With `COc1ccc2nc(-c3cccnc3)nc(Nc3ccccc3C(=O)NCc3occc3C)c2c1` [Compound 901], the IC50 is 1000 to 10000 nM.

Regarding `COc1cccc(-c2ccc3nc(-c4cccnc4)nc(Oc4ccc(F)c(Cl)c4)c3c2)c1` [Compound 390], the IC50 fell in the range of 1000 to 10000 nM.

Regarding `CNc1nc(-c2cccnc2)nc2ccc(-c3ccc4c(cnn4C)c3)cc12` [Compound 1366], the IC50 lay in the range of 1000 to 10000 nM.

As for `CNc1nc(-c2cccnc2)nc2cc(-c3cccc(OC)c3)c(C)cc12` [Compound 1412], the IC50 is 1000 to 10000 nM.

As to `CNc1nc(-c2cccnc2)nc2cc(-c3cccc(C#N)c3)c(C)cc12` [Compound 1409], the IC50 was 1000 to 10000 nM.

Take `Fc1ccc(Nc2nc(-c3ccncn3)nc3ccccc23)cc1Cl` [Compound 1206]: the IC50 fell in the range of 1000 to 10000 nM.

On to `COc1ccc2nc(-c3cccnc3)nc(Nc3ccc4c(c3)OC(F)(F)C(F)(F)O4)c2c1` [Compound 322], for which the IC50 is above 10000 nM.

On to `CN(C)c1ccc2nc(-c3ccnnc3)nc(Nc3ccc(F)c(Cl)c3)c2c1` [Compound 1152], for which the IC50 lay within 1000 to 10000 nM.

On to `COc1ccc2nc(-c3cccnc3)nc(Nc3nc(-c4cc(F)cc(F)c4)cs3)c2c1` [Compound 457], for which the IC50 lay in the range of 1000 to 10000 nM.

On to `CNc1nc(-c2ccncc2)nc2ccc(-c3ccc(F)cc3F)cc12` [Compound 1467], for which the IC50 is 1000 to 10000 nM.

Regarding `COc1ncc(-c2ccc3nc(-c4cccnc4)nc(Nc4ccc(F)c(Cl)c4)c3c2)c(OC)n1` [Compound 653], the half-inhibitory concentration (IC50) is below 1000 nM.

Consider `CNc1nc(-c2cccnc2)nc2cc(-c3ccc(F)cc3)ccc12` [Compound 1360], for which the IC50 lay within 1000 to 10000 nM.

Take `Fc1cccc(-c2ccc3c(Nc4ccc(F)c(Cl)c4)nc(-c4cccnc4)nc3c2)c1` [Compound 688]: the IC50 was below 1000 nM.

As for `Clc1cc(Cl)cc(Nc2nc(-c3cnccn3)nc3cc(Cl)ccc23)c1` [Compound 1146], the IC50 lay in the range of 1000 to 10000 nM.

As to `COc1ccc2nc(-c3cccnc3)nc(Nc3nc(-c4ccc(F)cc4)cs3)c2c1` [Compound 419], the IC50 was below 1000 nM.

As to `NC(=O)c1ccccc1Nc1nc(-c2cnccn2)nc2cc(Cl)ccc12` [Compound 1143], the IC50 lay within 1000 to 10000 nM.

As for `CN(C)C(=O)COc1ccc2nc(-c3cccnc3)nc(Oc3ccc(Cl)c(Cl)c3)c2c1` [Compound 847], the IC50 was below 1000 nM.

Consider `CNc1nc(-c2cccnc2)nc2ccc(-c3ccc(F)c(F)c3F)cc12` [Compound 1375], for which the IC50 was in the range of 1000 to 10000 nM.

`COc1ccc2nc(-c3cccnc3)nc(Nc3nc(-c4ccc(C(F)(F)F)cc4)cs3)c2c1` [Compound 443]: the IC50 was below 1000 nM.

On to `Fc1ccc(Nc2nc(-c3cccnc3)nc3ccc(-c4cccc(Cl)c4)cc23)cc1Cl` [Compound 629], for which the IC50 is 1000 to 10000 nM.

Turning to `NC(=O)c1ccccc1Nc1nc(-c2cccnc2)nc2cc(-c3ccc(F)cc3F)ccc12` [Compound 704], the IC50 was below 1000 nM.

On to `CCOc1ccc2nc(-c3ccnnc3)nc(Nc3cccc(OC(F)F)c3)c2c1` [Compound 1167], for which the IC50 was 1000 to 10000 nM.

`COc1ccc2c(Nc3ccc(F)c(Cl)c3)nc(-c3cnccn3)nc2c1` [Compound 1148]: the IC50 lay in the range of 1000 to 10000 nM.

As to `COc1ccc2nc(-c3cccnc3)nc(Nc3ccc4ccsc4c3)c2c1` [Compound 309], the IC50 is 1000 to 10000 nM.

Turning to `COc1ncc(-c2ccc3nc(-c4cccnc4)nc(Nc4ccc(F)c(Cl)c4)c3c2)cn1` [Compound 666], the IC50 is below 1000 nM.

Turning to `CNc1nc(-c2cccnc2)nc2cc(-c3ccc(C#N)cc3)ccc12` [Compound 1365], the IC50 fell in the range of 1000 to 10000 nM.

As to `CN(C)c1nc(-c2cccnc2)nc2ccc(-c3ccc([N+](=O)[O-])cc3)cc12` [Compound 1336], the IC50 lay within 1000 to 10000 nM.

For the molecule `CNc1nc(-c2cccnc2)nc2ccc(-c3ccc(C(C)=O)cc3OC)cc12` [Compound 1382], the IC50 is below 1000 nM.

The record behind these values is US9630947B2, “Therapeutic compounds and related methods of use” (OTSUKA PHARMACEUTICAL CO., LTD., priority 2009, dated 2017).
